This is an account of results in US20250114345A1, “COMPOUNDS AND COMPOSITIONS AS CBP/P300 DEGRADERS AND USES THEREOF” (Oncopia Therapeutics, Inc. d/b/a/ SK Life Science Labs, priority 2023, published 2025).

One assay concerns the target T1, CBP (Homo sapiens, UniProt Q92793).
T1 construct: host or cells: A549 CBP HiBit cells
The experiment in a line: CBP degradation, HiBit technology in A549 CBP HiBit cells (24 h). Type of assay: cell-based. The following applies: 24 hrs post treatment. The method, boiled down: (§1)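 A549 HiBiT knock-in cells seeded overnight at 37 °C, 5% CO2 in F-12K with 10% heat-inactivated FBS, then given serial dilutions of compound from 10 mM DMSO stocks. Lytic HiBiT detection reagent added for 10 min at room temperature; luminescence read. Potency and Dmax reported.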
In general terms: The HiBiT peptide binds its large partner to form an active luciferase.

The target of a further assay is T2, p300 (Homo sapiens, UniProt Q09472).
T2 construct: host or cells: A549 P300 HiBit cells
Kind of assay: P300 degradation, HiBit technology in A549 P300 HiBit cells (2 h). Format: cell-based. The conditions noted are these: 2 hrs post treatment; for Dmax: A549, A549 P300 HiBit cells; for DC50: A549 P300 HiBit cells. The method, boiled down: as §1

T1 sequence (Q92793 whole entry): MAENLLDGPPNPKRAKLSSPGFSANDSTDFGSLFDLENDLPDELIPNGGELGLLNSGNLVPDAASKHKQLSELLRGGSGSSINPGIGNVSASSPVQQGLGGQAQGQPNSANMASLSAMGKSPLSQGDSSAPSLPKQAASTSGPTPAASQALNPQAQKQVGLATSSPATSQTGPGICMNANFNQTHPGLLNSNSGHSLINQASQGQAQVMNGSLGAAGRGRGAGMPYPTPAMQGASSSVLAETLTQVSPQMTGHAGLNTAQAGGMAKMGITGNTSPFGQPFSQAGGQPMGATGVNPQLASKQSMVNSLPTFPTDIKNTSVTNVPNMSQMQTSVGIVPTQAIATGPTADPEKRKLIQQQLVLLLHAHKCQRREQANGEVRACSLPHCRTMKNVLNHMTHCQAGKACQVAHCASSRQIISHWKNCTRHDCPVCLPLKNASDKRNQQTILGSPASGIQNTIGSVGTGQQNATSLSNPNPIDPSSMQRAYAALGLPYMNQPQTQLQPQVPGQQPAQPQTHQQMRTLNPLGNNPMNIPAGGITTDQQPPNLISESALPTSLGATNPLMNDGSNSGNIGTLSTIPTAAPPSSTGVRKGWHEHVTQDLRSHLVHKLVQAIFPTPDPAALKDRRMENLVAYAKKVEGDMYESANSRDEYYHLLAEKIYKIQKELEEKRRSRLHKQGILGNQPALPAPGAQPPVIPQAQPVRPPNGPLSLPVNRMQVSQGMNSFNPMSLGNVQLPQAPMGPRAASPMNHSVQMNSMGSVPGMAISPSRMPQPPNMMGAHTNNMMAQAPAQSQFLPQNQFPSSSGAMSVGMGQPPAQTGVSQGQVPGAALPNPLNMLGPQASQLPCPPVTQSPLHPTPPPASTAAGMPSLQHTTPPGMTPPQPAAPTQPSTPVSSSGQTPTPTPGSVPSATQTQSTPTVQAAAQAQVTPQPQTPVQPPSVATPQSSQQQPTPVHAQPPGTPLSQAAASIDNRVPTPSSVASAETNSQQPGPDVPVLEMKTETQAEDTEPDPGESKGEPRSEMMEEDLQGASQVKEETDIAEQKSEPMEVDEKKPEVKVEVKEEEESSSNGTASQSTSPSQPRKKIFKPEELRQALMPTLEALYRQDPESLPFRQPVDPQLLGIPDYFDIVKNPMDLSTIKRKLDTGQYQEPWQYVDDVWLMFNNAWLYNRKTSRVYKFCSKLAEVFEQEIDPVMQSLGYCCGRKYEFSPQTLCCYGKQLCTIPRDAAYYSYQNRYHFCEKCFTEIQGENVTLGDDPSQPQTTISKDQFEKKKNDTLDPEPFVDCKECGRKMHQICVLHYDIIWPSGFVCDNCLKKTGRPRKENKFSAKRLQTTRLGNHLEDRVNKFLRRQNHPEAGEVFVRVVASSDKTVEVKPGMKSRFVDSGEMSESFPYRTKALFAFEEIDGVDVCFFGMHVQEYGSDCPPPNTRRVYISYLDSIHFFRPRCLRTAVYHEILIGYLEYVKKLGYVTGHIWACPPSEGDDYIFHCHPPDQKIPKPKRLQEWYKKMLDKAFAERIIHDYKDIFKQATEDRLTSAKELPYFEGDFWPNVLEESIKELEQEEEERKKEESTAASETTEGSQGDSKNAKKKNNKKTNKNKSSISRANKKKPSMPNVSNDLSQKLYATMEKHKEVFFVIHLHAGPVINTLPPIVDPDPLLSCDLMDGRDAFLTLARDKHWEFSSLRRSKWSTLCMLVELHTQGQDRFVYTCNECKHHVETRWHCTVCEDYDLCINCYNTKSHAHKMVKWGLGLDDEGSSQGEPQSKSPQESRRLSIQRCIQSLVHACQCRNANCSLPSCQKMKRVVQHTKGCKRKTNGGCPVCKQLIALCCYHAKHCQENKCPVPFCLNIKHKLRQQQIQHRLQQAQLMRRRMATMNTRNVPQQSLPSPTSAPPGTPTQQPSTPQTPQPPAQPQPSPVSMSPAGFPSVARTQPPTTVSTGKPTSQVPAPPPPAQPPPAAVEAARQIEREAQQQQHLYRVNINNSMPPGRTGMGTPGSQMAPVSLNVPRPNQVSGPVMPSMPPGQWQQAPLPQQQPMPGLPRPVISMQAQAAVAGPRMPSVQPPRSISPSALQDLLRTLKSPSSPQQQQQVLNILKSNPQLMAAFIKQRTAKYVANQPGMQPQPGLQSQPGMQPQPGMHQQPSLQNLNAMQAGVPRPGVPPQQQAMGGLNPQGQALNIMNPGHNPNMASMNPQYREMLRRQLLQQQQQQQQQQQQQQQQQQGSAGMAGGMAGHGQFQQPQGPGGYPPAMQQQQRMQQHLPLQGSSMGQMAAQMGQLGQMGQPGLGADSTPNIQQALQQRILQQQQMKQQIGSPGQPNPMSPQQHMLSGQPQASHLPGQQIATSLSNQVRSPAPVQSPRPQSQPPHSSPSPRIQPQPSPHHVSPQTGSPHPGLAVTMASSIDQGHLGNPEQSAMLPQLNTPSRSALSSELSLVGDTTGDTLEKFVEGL
T2 sequence (Q09472 whole entry): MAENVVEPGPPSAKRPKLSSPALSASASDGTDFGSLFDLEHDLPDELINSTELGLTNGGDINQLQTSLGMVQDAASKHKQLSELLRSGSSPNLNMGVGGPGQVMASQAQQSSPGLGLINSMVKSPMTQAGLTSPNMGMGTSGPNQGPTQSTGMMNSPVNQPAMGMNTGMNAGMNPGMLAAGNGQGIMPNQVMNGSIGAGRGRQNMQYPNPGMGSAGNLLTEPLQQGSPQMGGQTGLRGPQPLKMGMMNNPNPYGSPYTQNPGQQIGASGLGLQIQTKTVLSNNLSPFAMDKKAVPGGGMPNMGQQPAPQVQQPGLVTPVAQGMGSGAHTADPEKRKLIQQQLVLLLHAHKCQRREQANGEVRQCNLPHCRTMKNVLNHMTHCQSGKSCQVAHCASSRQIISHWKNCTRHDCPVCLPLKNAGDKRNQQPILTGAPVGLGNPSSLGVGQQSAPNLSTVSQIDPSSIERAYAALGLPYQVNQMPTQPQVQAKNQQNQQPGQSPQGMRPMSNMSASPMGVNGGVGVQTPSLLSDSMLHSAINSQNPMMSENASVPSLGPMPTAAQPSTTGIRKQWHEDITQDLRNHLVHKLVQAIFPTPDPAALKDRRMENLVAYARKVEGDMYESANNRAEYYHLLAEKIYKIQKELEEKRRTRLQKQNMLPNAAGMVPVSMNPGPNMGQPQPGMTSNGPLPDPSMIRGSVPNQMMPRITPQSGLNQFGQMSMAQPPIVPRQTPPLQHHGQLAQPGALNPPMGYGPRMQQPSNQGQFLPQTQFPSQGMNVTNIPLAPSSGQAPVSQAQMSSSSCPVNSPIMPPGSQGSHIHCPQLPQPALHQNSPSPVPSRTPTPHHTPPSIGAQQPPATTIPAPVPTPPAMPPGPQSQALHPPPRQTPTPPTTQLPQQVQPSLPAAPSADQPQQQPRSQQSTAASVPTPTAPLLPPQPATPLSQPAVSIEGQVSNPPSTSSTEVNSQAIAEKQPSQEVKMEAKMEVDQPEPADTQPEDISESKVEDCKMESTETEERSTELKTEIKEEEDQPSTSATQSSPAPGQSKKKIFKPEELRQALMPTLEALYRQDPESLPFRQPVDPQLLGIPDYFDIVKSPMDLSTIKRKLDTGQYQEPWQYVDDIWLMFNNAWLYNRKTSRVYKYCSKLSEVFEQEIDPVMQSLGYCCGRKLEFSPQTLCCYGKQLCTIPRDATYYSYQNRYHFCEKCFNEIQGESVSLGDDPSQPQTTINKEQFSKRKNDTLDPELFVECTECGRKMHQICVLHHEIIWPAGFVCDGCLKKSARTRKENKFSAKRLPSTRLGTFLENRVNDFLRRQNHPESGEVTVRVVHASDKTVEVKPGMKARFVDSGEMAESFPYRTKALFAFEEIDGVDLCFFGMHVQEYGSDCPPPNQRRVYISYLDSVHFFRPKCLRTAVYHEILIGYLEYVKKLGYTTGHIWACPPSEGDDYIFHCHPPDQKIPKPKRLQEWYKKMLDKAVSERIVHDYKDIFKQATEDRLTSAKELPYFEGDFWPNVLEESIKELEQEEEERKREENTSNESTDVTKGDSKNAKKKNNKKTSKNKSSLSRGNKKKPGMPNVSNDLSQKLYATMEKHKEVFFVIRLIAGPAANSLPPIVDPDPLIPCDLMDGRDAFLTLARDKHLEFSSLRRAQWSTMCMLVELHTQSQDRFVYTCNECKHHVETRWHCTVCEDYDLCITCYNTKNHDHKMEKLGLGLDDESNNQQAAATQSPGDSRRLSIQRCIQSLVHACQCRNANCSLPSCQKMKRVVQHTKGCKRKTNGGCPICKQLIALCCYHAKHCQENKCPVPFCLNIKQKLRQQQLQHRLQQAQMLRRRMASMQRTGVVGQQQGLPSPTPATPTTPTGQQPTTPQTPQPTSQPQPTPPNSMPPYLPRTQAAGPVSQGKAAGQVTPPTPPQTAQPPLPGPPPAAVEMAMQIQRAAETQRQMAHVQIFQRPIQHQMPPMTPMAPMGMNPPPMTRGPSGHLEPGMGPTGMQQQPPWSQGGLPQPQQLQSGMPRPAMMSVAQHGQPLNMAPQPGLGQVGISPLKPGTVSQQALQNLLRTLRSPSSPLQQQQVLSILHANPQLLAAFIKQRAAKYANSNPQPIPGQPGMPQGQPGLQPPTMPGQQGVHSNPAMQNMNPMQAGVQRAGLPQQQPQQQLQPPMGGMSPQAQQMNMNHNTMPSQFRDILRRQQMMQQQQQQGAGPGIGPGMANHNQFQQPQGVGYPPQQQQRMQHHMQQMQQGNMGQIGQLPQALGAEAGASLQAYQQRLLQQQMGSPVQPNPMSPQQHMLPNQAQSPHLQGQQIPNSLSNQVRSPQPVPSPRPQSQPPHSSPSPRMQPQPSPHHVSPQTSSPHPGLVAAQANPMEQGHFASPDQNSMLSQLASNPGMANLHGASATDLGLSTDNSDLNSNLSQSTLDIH

As a reminder, the DC50 is the concentration at which degradation of the target reaches its halfway point. What is called Dmax is the largest share of the target that was removed. Higher therefore signals deep degradation. At CBP, `Cc1cc(-c2cc3cccc(-c4cc5c(c(N6CCOCC6)n4)n(C)c(=O)n5C)c3cn2)cnc1C(=O)NCC#Cc1ccc2occ(C3CCC(=O)NC3=O)c2c1` (stereo not shown) [Example A150, 5-(8-(1,3-dimethyl-4-morpholino-2-oxo-2,3-dihydro-1H-imidazo[4,5-c]pyridin-6-yl)isoquinolin-3-yl)-N-(3-(3-(2,6-dioxopiperidin-3-yl)benzofuran-5-yl)prop-2-yn-1-yl)-3-methylpicolinamide] registered a DC50 above 1000 nM and a Dmax below 20%. For the same compound, on p300, the Dmax is above 80% and the DC50 is 1 to 9.9 nM.
At CBP, `Cc1cc(-c2cc3cccc(-c4ccc5c(c4)n(C)c(=O)n5C)c3cn2)cnc1C(=O)NCC#Cc1ccc2occ(C3CCC(=O)NC3=O)c2c1` (stereo not shown) [Example A155, 5-(8-(1,3-dimethyl-2-oxo-2,3-dihydro-1H-benzo[d]imidazol-5-yl)isoquinolin-3-yl)-N-(3-(3-(2,6-dioxo-piperidin-3-yl)benzofuran-5-yl)prop-2-yn-1-yl)-3-methylpicolinamide] gave a DC50 above 1000 nM and a Dmax below 20%. On p300, the Dmax is above 80% and the DC50 fell in the range of 1 to 9.9 nM.
The like results for `CC(C)c1cc(-c2cccc3cc(-c4ccc(C(=O)NCC#Cc5ccc6oc(F)c(C7CCC(=O)NC7=O)c6c5)nc4)ncc23)cc2c1n(C)c(=O)n2C` (stereo not shown) [Example A158, N-(3-(3-(2,6-dioxo-piperidin-3-yl)-2-fluorobenzofuran-5-yl)prop-2-yn-1-yl)-5-(8-(7-isopropyl-1,3-dimethyl-2-oxo-2,3-dihydro-1H-benzo [d]imidazol-5-yl)isoquinolin-3-yl)picolinamide] were, in that order, 10 to 99 nM, 40 to 59%, above 80% and 1 to 9.9 nM.
At CBP, `Cc1cc(N2CCOc3nc(-c4ccc(C(=O)NCC#Cc5cc6c(C7CCC(=O)NC7=O)nccc6o5)nc4)ncc32)cc2c1n(C)c(=O)n2C` (stereo not shown) [Example A160, N-(3-(4-(2,6-dioxo-piperidin-3-yl)furo[3,2-c]pyridin-2-yl)prop-2-yn-1-yl)-5-(5-(1,3,7-trimethyl-2-oxo-2,3-dihydro-1H-benzo[d]imidazol-5-yl)-6,7-dihydro-5H-pyrimido[4,5-b] [1,4]oxazin-2-yl)picolinamide] showed a DC50 above 1000 nM and a Dmax below 20%. On p300, the Dmax is above 80% and the DC50 is below 1 nM.
In the case of `CC(C)c1cc(N2CCOc3cc(-c4ccc(C(=O)NCC#Cc5ccn6ncc(C7CCC(=O)NC7=O)c6c5)nc4)ncc32)cc2c1n(C)c(=O)n2C` (stereo not shown) [Example A161, N-(3-(3-(2,6-dioxo-piperidin-3-yl)pyrazolo[1,5-a]pyridin-5-yl)prop-2-yn-1-yl)-5-(4-(7-isopropyl-1,3-dimethyl-2-oxo-2,3-dihydro-1H-benzo[d]imidazol-5-yl)-3,4-dihydro-2H-pyrido[4,3-b][1,4]oxazin-7-yl)picolinamide], the DC50 at CBP is 100 to 999 nM; at p300 it was below 1 nM. In addition, the Dmax on CBP was below 20%; on p300 it was above 80%.
The like results for `Cn1c(=O)n(C)c2ncc(-c3cccc4cc(-c5ccc(C(=O)NCC#Cc6cc7c(C8CCC(=O)NC8=O)cccc7o6)nc5)ncc34)cc21` (stereo not shown) [Example A162, 5-(8-(1,3-dimethyl-2-oxo-2,3-dihydro-1H-imidazo[4,5-b]pyridin-6-yl)isoquinolin-3-yl)-N-(3-(4-(2,6-dioxopiperidin-3-yl)benzofuran-2-yl)prop-2-yn-1-yl)picolinamide] were, in that order, 100 to 999 nM, below 1 nM, below 20% and above 80%.
Turning to `Cn1c(=O)n(C)c2cc(-c3cccc4cc(-c5ccc(C(=O)NCC#Cc6ccc7nnn(C8CCC(=O)NC8=O)c7c6)nc5)ncc34)ccc21` (stereo not shown) [Example A163, 5-(8-(1,3-dimethyl-2-oxo-2,3-dihydro-1H-benzo[d]imidazol-5-yl)isoquinolin-3-yl)-N-(3-(1-(2,6-dioxo-piperidin-3-yl)-1H-benzo[d][1,2,3]triazol-6-yl)prop-2-yn-1-yl)picolinamide], at CBP, the DC50 was above 1000 nM and the Dmax is below 20%. At p300, this compound came in with a Dmax above 80% and a DC50 below 1 nM.
On CBP, `CC(C)c1cc(-c2cccc3cc(-c4ccc(C(=O)NCC#Cc5ccc6scc(C7CCC(=O)NC7=O)c6c5)nc4)ncc23)cc2c1n(C)c(=O)n2C` (stereo not shown) [Example A164, N-(3-(3-(2,6-dioxo-piperidin-3-yl)benzo[b]thiophen-5-yl)prop-2-yn-1-yl)-5-(8-(7-isopropyl-1,3-dimethyl-2-oxo-2,3-dihydro-1H-benzo [d]imidazol-5-yl)isoquinolin-3-yl)picolinamide] showed a DC50 above 1000 nM and a Dmax below 20%. Also, on p300, the Dmax is above 80% and the DC50 lay in the range of 10 to 99 nM.
`Cn1c(=O)n(C)c2cc(N3CCOc4nc(-c5ccc(C(=O)NCC#Cc6cc7c(C8CCC(=O)NC8=O)cccc7o6)nc5)ncc43)ccc21` (stereo not shown) [Example A165, 5-(5-(1,3-dimethyl-2-oxo-2,3-dihydro-1H-benzo[d]imidazol-5-yl)-6,7-dihydro-5H-pyrimido[4,5-b][1,4]oxazin-2-yl)-N-(3-(4-(2,6-dioxopiperidin-3-yl)benzofuran-2-yl)prop-2-yn-1-yl)picolinamide]: on CBP, the DC50 is above 1000 nM and the Dmax was below 20%. At p300, this compound yielded a Dmax above 80% and a DC50 of 1 to 9.9 nM.
On to `Cn1c(=O)n(C)c2cc(-c3cccc4cc(-c5ccc(C(=O)NCC#Cc6cc7c(C8CCC(=O)NC8=O)cccc7o6)nc5)ncc34)ccc21` (stereo not shown) [Example A169, 5-(8-(1,3-dimethyl-2-oxo-2,3-dihydro-1H-benzo[d]imidazol-5-yl)isoquinolin-3-yl)-N-(3-(4-(2,6-dioxo-piperidin-3-yl)benzofuran-2-yl)prop-2-yn-1-yl)picolinamide], for which the DC50 was above 1000 nM on CBP and below 1 nM at p300. Also, the Dmax is below 20% at CBP and above 80% at p300.
The like results for `Cn1c(=O)n(C)c2cc(-c3cccc4cc(-c5ccc(C(=O)NCC#Cc6cc7c([C@H]8CCC(=O)NC8=O)cccc7o6)nc5)ncc34)ccc21` [Example A170, (R)-5-(8-(1,3-dimethyl-2-oxo-2,3-dihydro-1H-benzo[d]imidazol-5-yl)isoquinolin-3-yl)-N-(3-(4-(2,6-dioxo-piperidin-3-yl)benzofuran-2-yl)prop-2-yn-1-yl)picolinamide] were, in that order, above 1000 nM, below 1 nM, below 20% and above 80%.
Take `Cn1c(=O)n(C)c2cc(-c3cccc4cc(-c5ccc(C(=O)NCC#Cc6cc7c([C@@H]8CCC(=O)NC8=O)cccc7o6)nc5)ncc34)ccc21` [Example A171, (S)-5-(8-(1,3-dimethyl-2-oxo-2,3-dihydro-1H-benzo[d]imidazol-5-yl)isoquinolin-3-yl)-N-(3-(4-(2,6-dioxopiperidin-3-yl)benzofuran-2-yl)prop-2-yn-1-yl)picolinamide]: on CBP, the DC50 was above 1000 nM and the Dmax is below 20%. On p300, this compound came in with a Dmax above 80% and a DC50 of 1 to 9.9 nM.
Regarding `CC(C)c1cc(-c2cccc3cc(-c4ccc(C(=O)NCC#Cc5ccn6ncc(C7CCC(=O)NC7=O)c6c5)nc4)ncc23)cc2c1n(C)c(=O)n2C` (stereo not shown) [Example A172, N-(3-(3-(2,6-dioxo-piperidin-3-yl)pyrazolo[1,5-a]pyridin-5-yl)prop-2-yn-1-yl)-5-(8-(7-isopropyl-1,3-dimethyl-2-oxo-2,3-dihydro-1H-benzo[d]imidazol-5-yl)isoquinolin-3-yl)picolinamide], on CBP, the DC50 fell in the range of 100 to 999 nM and the maximal degradation (Dmax) is below 20%. On p300, this compound came in with a Dmax above 80% and a DC50 below 1 nM.
At CBP, `Cc1cc(-c2ncc3c(n2)OCCN3c2ccc3c(c2)n(C)c(=O)n3C)cnc1C(=O)NCC#Cc1cc2c(C3CCC(=O)NC3=O)cccc2o1` (stereo not shown) [Example A173, 5-(5-(1,3-dimethyl-2-oxo-2,3-dihydro-1H-benzo[d]imidazol-5-yl)-6,7-dihydro-5H-pyrimido[4,5-b][1,4]oxazin-2-yl)-N-(3-(4-(2,6-dioxopiperidin-3-yl)benzofuran-2-yl)prop-2-yn-1-yl)-3-methylpicolinamide] yielded a DC50 above 1000 nM and a Dmax below 20%. At p300, the Dmax is above 80% and the DC50 was 1 to 9.9 nM.
At CBP, `Cc1cc(-c2ncc3c(n2)OCCN3c2ccc3c(c2)n(C)c(=O)n3C)cnc1C(=O)NCC#Cc1cc2c([C@H]3CCC(=O)NC3=O)cccc2o1` [Example A174, (R)-5-(5-(1,3-dimethyl-2-oxo-2,3-dihydro-1H-benzo [d]imidazol-5-yl)-6,7-dihydro-5H-pyrimido [4,5-b][1,4]oxazin-2-yl)-N-(3-(4-(2,6-dioxopiperidin-3-yl)benzofuran-2-yl)prop-2-yn-1-yl)-3-methylpicolinamide] showed a DC50 above 1000 nM and a Dmax below 20%. On p300, this compound displayed a Dmax above 80% and a DC50 of 1 to 9.9 nM.
For `Cc1cc(-c2ncc3c(n2)OCCN3c2ccc3c(c2)n(C)c(=O)n3C)cnc1C(=O)NCC#Cc1cc2c([C@@H]3CCC(=O)NC3=O)cccc2o1` [Example A175, (S)-5-(5-(1,3-dimethyl-2-oxo-2,3-dihydro-1H-benzo[d]imidazol-5-yl)-6,7-dihydro-5H-pyrimido[4,5-b] [1,4]oxazin-2-yl)-N-(3-(4-(2,6-dioxo-piperidin-3-yl)benzofuran-2-yl)prop-2-yn-1-yl)-3-methylpicolinamide], the DC50 at CBP was above 1000 nM; at p300 it was 10 to 99 nM. Also, the results for the Dmax at CBP and at p300 were below 20% and above 80%, respectively.
